These results are taken from patent US8680139B2 (Progenra, priority 2009, dated 2014).

Structures are written as SMILES. Where only a bound is given, the exact number is not on record here.

The target of one assay is T1, USP7 (Homo sapiens, UniProt Q93009).
T1 construct: full length human USP7 protein; made in house
T1 sequence (Q93009 whole entry): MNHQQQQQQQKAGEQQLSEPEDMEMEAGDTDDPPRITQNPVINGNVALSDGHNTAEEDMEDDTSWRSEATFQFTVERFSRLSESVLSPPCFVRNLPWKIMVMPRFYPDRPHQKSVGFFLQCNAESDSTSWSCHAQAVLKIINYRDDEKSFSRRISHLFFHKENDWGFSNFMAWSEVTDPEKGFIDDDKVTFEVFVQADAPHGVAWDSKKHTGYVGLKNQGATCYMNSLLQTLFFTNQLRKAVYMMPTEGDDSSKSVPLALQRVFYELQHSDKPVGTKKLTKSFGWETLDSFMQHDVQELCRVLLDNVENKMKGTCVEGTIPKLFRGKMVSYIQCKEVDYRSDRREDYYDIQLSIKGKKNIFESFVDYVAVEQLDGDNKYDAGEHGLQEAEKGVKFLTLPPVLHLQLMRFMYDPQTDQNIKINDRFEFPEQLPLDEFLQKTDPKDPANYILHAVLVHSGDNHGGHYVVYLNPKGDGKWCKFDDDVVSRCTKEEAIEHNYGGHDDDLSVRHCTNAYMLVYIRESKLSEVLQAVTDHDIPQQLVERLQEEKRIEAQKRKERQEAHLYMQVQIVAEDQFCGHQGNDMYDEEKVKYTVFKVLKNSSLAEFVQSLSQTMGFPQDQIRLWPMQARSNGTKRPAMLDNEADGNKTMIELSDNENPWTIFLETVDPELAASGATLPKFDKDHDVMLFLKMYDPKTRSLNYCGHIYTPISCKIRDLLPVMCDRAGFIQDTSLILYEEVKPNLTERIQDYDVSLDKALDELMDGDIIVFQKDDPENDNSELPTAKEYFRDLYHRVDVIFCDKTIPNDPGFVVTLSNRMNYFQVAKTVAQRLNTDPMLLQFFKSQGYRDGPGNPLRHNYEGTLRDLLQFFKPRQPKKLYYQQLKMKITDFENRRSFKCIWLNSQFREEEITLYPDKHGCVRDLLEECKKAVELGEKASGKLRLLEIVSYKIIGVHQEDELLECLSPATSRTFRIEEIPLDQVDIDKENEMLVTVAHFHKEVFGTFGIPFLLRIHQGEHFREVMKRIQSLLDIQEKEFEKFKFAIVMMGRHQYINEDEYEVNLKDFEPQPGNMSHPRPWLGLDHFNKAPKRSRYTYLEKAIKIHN
The assay can be described thus: USP7, Ub-PLA2 assay. It counts as biochemical. The note with it: USP7, Ub-PLA2 assay. The protocol:
The purpose of this assay is to measure the inhibition of USP7 by various compounds of the invention synthesized according to the above-described methods. […] The vehicle control was 100% (v/v) DMSO. 1.6 μL aliquots of the diluted test compound and controls were dispensed into individual wells in a black walled 96 well plate. […] The data were normalized within a plate relative to the control wells using the equation % inhibition=(100−(((RFUcompound−RFUmean NEM) / (RFUmean DMSO−RFUmean NEM))×100)).
`N=C(N)Nc1ccc(NC(=O)c2cc([N+](=O)[O-])c(Sc3c(Cl)cncc3Cl)s2)cc1` [Example 236, 5-((3,5-dichloropyridin-4-yl)thio)-N-(4-guanidinophenyl)-4-nitrothiophene-2-carboxamide]: the “USP7 inhibition, result in words” value is recorded as “Particularly good results”.

The same assay, now with this note: Ub-PLA2 / NBD C6-HPC fluorescence, 30 minute preincubation; read-out: EC50 for inhibition of USP7.
In the case of `O=C(NCC(=O)N1CCC(CO)CC1)c1cc([N+](=O)[O-])c(Sc2c(Cl)cncc2Cl)s1` [Example 215, 5-((3,5-dichloropyridin-4-yl)thio)-N-(2-(4-(hydroxymethyl)piperidin-1-yl)-2-oxoethyl)-4-nitrothiophene-2-carboxamide], the concentration for a half-maximal effect (EC50) is 1 to 10 µM. With `O=C(NCc1ccc2c(c1)OCO2)c1cc([N+](=O)[O-])c(Sc2c(Cl)cncc2Cl)s1` [Example 151, N-(benzo[d][1,3]dioxol-5-ylmethyl)-5-((3,5-dichloropyridin-4-yl)thio)-4-nitrothiophene-2-carboxamide], the concentration giving a half-maximal response (EC50) was at most 1 µM. For the compound `Cc1cnc(NC(=O)c2cc([N+](=O)[O-])c(Sc3c(Cl)cncc3Cl)s2)s1` [Example 89], the EC50 was 1 to 10 µM. Regarding `CC(=O)c1cc([N+](=O)[O-])c(Sc2ccccc2C(F)(F)F)s1` [Example 4, 1-{4-Nitro-5-[2-(trifluoromethyl)phenylsulfanyl]-2-thienyl}ethanone], the concentration for a half-maximal effect (EC50) was in the range of 1 to 10 µM. With `O=C(NCc1cccc(OC(F)F)c1)c1cc([N+](=O)[O-])c(Sc2c(Cl)cncc2Cl)s1` [Example 145, 5-((3,5-dichloropyridin-4-yl)thio)-N-(3-(difluoromethoxy)benzyl)-4-nitrothiophene-2-carboxamide], the half-maximal effective concentration (EC50) was at most 1 µM. On to `CC(=O)c1cc([N+](=O)[O-])c(Sc2ccc([N+](=O)[O-])cc2)s1` [Example 13, 1-[4-nitro-5-(4-nitrophenylsulfanyl)-2-thienyl]ethanone], for which the EC50 was in the range of 1 to 10 µM.

Regarding `CNC(=O)c1cc([N+](=O)[O-])c(Sc2cccc(Cl)c2Cl)s1` [Example 42, 5-(2,3-dichlorophenylsulfanyl)-N-methyl-4-nitrothiophene-2-carboxamide], the EC50 lay in the range of 1 to 10 µM.

With `CCN1CCC(CCNC(=O)c2cc([N+](=O)[O-])c(Sc3c(Cl)cncc3Cl)s2)CC1` [Example 185, 5-((3,5-dichloropyridin-4-yl)thio)-N-(2-(1-ethylpiperidin-4-yl)ethyl)-4-nitrothiophene-2-carboxamide], the EC50 was at most 1 µM.

`NC(=O)C1CCN(CCCNC(=O)c2cc([N+](=O)[O-])c(Sc3c(Cl)cncc3Cl)s2)CC1` [Example 226, 1-(3-(5-((3,5-dichloropyridin-4-yl)thio)-4-nitrothiophene-2-carboxamido)propyl)piperidine-4-carboxamide]: the EC50 is at most 1 µM.

Regarding `CC1(C)CCN(CCCNC(=O)c2cc([N+](=O)[O-])c(Sc3c(Cl)cncc3Cl)s2)CC1` [Example 229, 5-((3,5-dichloropyridin-4-yl)thio)-N-(3-(4,4-dimethylpiperidin-1-yl)propyl)-4-nitrothiophene-2-carboxamide], the EC50 is at most 1 µM.

Take `O=C(NCC(=O)N1CCCC(O)C1)c1cc([N+](=O)[O-])c(Sc2c(Cl)cncc2Cl)s1` (stereo not drawn) [Example 212, 5-((3,5-dichloropyridin-4-yl)thio)-N-(2-(3-hydroxypiperidin-1-yl)-2-oxoethyl)-4-nitrothiophene-2-carboxamide]: the concentration for a half-maximal effect (EC50) lay in the range of 1 to 10 µM. On to `CN1CCC(NC(=O)c2sc(Sc3c(Cl)cncc3Cl)c(C#N)c2-c2ccccc2)CC1` [Example 247, 4-cyano-5-((3,5-dichloropyridin-4-yl)thio)-N-(1-methylpiperidin-4-yl)-3-phenylthiophene-2-carboxamide], for which the EC50 was in the range of 1 to 10 µM.

On to `Cc1nc(C)c(Cl)c(Sc2sc(C(=O)NC3CCN(C)CC3)cc2[N+](=O)[O-])c1Cl` [Example 243, 5-((3,5-dichloro-2,6-dimethylpyridin-4-yl)thio)-N-(1-methylpiperidin-4-yl)-4-nitrothiophene-2-carboxamide], for which the 50% effective concentration (EC50) is 1 to 10 µM. Consider `CC(=O)N1CCC(NC(=O)c2cc([N+](=O)[O-])c(Sc3c(Cl)cncc3Cl)s2)C1` (stereo not drawn) [Example 199, N-(1-acetylpyrrolidin-3-yl)-5-((3,5-dichloropyridin-4-yl)thio)-4-nitrothiophene-2-carboxamide], for which the 50% effective concentration (EC50) fell in the range of 1 to 10 µM.

Take `N=C(N)N1CCC(NC(=O)c2cc([N+](=O)[O-])c(Sc3c(Cl)cncc3Cl)s2)CC1` [Example 237, N-(1-carbamimidoylpiperidin-4-yl)-5-((3,5-dichloropyridin-4-yl)thio)-4-nitrothiophene-2-carboxamide]: the concentration giving a half-maximal response (EC50) is at most 1 µM. Turning to `CCOc1cccc(CNC(=O)c2cc([N+](=O)[O-])c(Sc3c(Cl)cncc3Cl)s2)c1` [Example 149, 5-((3,5-dichloropyridin-4-yl)thio)-N-(3-ethoxybenzyl)-4-nitrothiophene-2-carboxamide], the EC50 is at most 1 µM. In the case of `CC(=O)c1cc([N+](=O)[O-])c(Sc2nccn2C)s1` [Example 15, 1-[5-(1-methylimidazol-2-yl)sulfanyl-4-nitro-2-thienyl]ethanone], the EC50 was 1 to 10 µM.

On to `N=C(N)Nc1ccc(NC(=O)c2cc([N+](=O)[O-])c(Sc3c(Cl)cncc3Cl)s2)cc1` [Example 236, 5-((3,5-dichloropyridin-4-yl)thio)-N-(4-guanidinophenyl)-4-nitrothiophene-2-carboxamide], for which the concentration giving a half-maximal response (EC50) was at most 1 µM. For `CN(C)CCCOc1ccc(NC(=O)c2cc([N+](=O)[O-])c(Sc3c(F)cncc3F)s2)cc1` [Example 257, 5-((3,5-difluoropyridin-4-yl)thio)-N-(4-(3-(dimethylamino)propoxy)phenyl)-4-nitrothiophene-2-carboxamide], the half-maximal effective concentration (EC50) lay in the range of 1 to 10 µM. In the case of `CC(C)N1CCC(NC(=O)c2cc([N+](=O)[O-])c(Oc3c(Cl)cncc3Cl)s2)CC1` [Example 260, 5-((3,5-dichloropyridin-4-yl)oxy)-N-(1-isopropylpiperidin-4-yl)-4-nitrothiophene-2-carboxamide], the EC50 was above 10 µM. Regarding `O=C(NCCN1CCOCC1)c1cc([N+](=O)[O-])c(Sc2c(Cl)cncc2Cl)s1` [Example 59, 5-((3,5-dichloropyridin-4-yl)thio)-N-(2-morpholinoethyl)-4-nitrothiophene-2-carboxamide], the 50% effective concentration (EC50) was 1 to 10 µM. As for `CC(O)c1ccc(NC(=O)c2cc([N+](=O)[O-])c(Sc3c(Cl)cncc3Cl)s2)cc1` (stereo not drawn) [Example 131, 5-((3,5-dichloropyridin-4-yl)thio)-N-(4-(1-hydroxyethyl)phenyl)-4-nitrothiophene-2-carboxamide], the concentration giving a half-maximal response (EC50) was at most 1 µM.

For `O=C(NC1CCNCC1)c1cc([N+](=O)[O-])c(Sc2c(Cl)cncc2Cl)s1` [Example 196, 5-((3,5-dichloropyridin-4-yl)thio)-4-nitro-N-(piperidin-4-yl)thiophene-2-carboxamide], the EC50 is at most 1 µM. For the compound `CC(C)NC(=O)c1cc([N+](=O)[O-])c(Sc2c(Cl)cncc2Cl)s1` [Example 44, 5-[(3,5-dichloro-4-pyridyl)sulfanyl]-N-isopropyl-4-nitro-thiophene-2-carboxamide], the concentration giving a half-maximal response (EC50) lay in the range of 1 to 10 µM. For `CN(C)C1CCN(CCCNC(=O)c2cc([N+](=O)[O-])c(Sc3c(Cl)cncc3Cl)s2)CC1` [Example 224, 5-((3,5-dichloropyridin-4-yl)thio)-N-(3-(4-(dimethylamino)piperidin-1-yl)propyl)-4-nitrothiophene-2-carboxamide], the EC50 lay in the range of 1 to 10 µM. As for `CC(N)c1cc([N+](=O)[O-])c(Sc2ccc(Cl)cc2Cl)s1` (stereo not drawn) [Example 27, 1-[5-(2,4-dichlorophenyl)sulfanyl-4-nitro-2-thienyl]ethanamine], the EC50 is above 10 µM. On to `NC(=O)c1cc([N+](=O)[O-])c(Sc2c(Cl)cncc2Cl)s1` [Example 46, 5-[(3,5-dichloro-4-pyridyl)sulfanyl]-4-nitro-thiophene-2-carboxamide], for which the EC50 lay within 1 to 10 µM. Turning to `O=C(NCCCc1ccccn1)c1cc([N+](=O)[O-])c(Sc2c(Cl)cncc2Cl)s1` [Example 115, 5-((3,5-dichloropyridin-4-yl)thio)-4-nitro-N-(3-(pyridin-2-yl)propyl)thiophene-2-carboxamide], the 50% effective concentration (EC50) is at most 1 µM. Same read-out and setting: as for `CCN1CCC(CNC(=O)c2cc([N+](=O)[O-])c(Sc3c(Cl)cncc3Cl)s2)C1` (stereo not drawn) [Example 91, 5-((3,5-dichloropyridin-4-yl)thio)-N-((1-ethylpyrrolidin-3-yl)methyl)-4-nitrothiophene-2-carboxamide], the figure is 1 to 10 µM; as for `O=C(NCCCN1CCCC1=O)c1cc([N+](=O)[O-])c(Sc2c(Cl)cncc2Cl)s1` [Example 104, 5-((3,5-dichloropyridin-4-yl)thio)-4-nitro-N-(3-(2-oxopyrrolidin-1-yl)propyl)thiophene-2-carboxamide], at most 1 µM; as for `COc1cccc(CN(C)C(=O)c2cc([N+](=O)[O-])c(Sc3c(Cl)cncc3Cl)s2)c1` [Example 67, 5-((3,5-dichloropyridin-4-yl)thio)-N-(3-methoxybenzyl)-N-methyl-4-nitrothiophene-2-carboxamide], 1 to 10 µM. On to `O=C(NC1C2CC3CC(C2)CC1C3)c1cc([N+](=O)[O-])c(Sc2c(Cl)cncc2Cl)s1` (stereo not drawn) [Example 75, N-((1r,3r,5r,7r)-adamantan-2-yl)-5-((3,5-dichloropyridin-4-yl)thio)-4-nitrothiophene-2-carboxamide], for which the EC50 lay in the range of 1 to 10 µM.

As to `O=C(NC1CCN(C2CC2)CC1)c1cc([N+](=O)[O-])c(Sc2c(Cl)cncc2Cl)s1` [Example 231, N-(1-cyclopropylpiperidin-4-yl)-5-((3,5-dichloropyridin-4-yl)thio)-4-nitrothiophene-2-carboxamide], the half-maximal effective concentration (EC50) is 1 to 10 µM. Regarding `O=C(NC1CCN(C2CC2)C1)c1cc([N+](=O)[O-])c(Sc2c(Cl)cncc2Cl)s1` (stereo not drawn) [Example 198, N-(1-cyclopropylpyrrolidin-3-yl)-5-((3,5-dichloropyridin-4-yl)thio)-4-nitrothiophene-2-carboxamide], the EC50 fell in the range of 1 to 10 µM. For the compound `CC(=O)c1cc([N+](=O)[O-])c(S(=O)(=O)c2ccc(Cl)cc2Cl)s1` [Example 35, 1-[5-(2,4-dichlorophenyl)sulfonyl-4-nitro-2-thienyl]ethanone], the EC50 is 1 to 10 µM.

What is called EC50 is the concentration giving half of the maximal effect.
